Among the targets are Carbonic anhydrase 2 (Homo sapiens, UniProt P00918); Carbonic anhydrase 1 (Homo sapiens, UniProt P00915); Carbonic anhydrase 9 (Homo sapiens, UniProt Q16790).
The next test addresses T1, Carbonic anhydrase 4 (Bos taurus, UniProt Q95323).
T1 sequence (Q95323 whole entry): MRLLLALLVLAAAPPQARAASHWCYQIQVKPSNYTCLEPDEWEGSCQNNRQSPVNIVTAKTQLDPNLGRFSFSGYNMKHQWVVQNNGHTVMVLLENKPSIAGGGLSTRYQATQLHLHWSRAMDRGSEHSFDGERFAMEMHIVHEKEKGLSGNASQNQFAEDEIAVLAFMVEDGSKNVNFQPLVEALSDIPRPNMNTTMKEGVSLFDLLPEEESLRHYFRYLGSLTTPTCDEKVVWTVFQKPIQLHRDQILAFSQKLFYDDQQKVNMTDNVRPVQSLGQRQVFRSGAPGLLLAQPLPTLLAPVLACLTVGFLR

Chain of Carbonic anhydrase 1 (P00915 whole entry): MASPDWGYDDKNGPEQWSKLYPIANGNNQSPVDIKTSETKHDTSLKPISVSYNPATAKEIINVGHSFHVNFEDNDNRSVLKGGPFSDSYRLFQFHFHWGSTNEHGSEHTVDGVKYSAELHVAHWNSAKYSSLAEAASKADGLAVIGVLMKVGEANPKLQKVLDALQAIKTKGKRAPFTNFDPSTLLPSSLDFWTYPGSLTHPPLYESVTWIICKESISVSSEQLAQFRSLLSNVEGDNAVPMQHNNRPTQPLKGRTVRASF
Description for Carbonic anhydrase 1: Inhibition constant determined against human cloned carbonic anhydrase I
Description for Carbonic anhydrase 2: Inhibition constant (Ki) against human cloned carbonic anhydrase II (CAH)
Description for Carbonic anhydrase 4: Inhibition constant against bovine Carbonic anhydrase IV, isolated from lung microsomes
Description for Carbonic anhydrase 9: Inhibition constant determined against catalytic domain of human cloned carbonic anhydrase IX

Take `CC(=O)Nc1ccc(S(=O)(=O)Nc2nnc(S(N)(=O)=O)s2)cc1Br`: the inhibition constant (Ki) (commonly a dissociation constant, usually derived from enzyme kinetics or from competition with a known ligand) came to 4.6 nM on Carbonic anhydrase 4, 1.5 nM on Carbonic anhydrase 2, 5 nM on Carbonic anhydrase 1 and 78 nM on Carbonic anhydrase 9.
As for `CC(=O)Nc1ccc(S(=O)(=O)Nc2nnc(S(N)(=O)=O)s2)cc1Cl`, the Ki at Carbonic anhydrase 4 stood at 4.2 nM; at Carbonic anhydrase 2 it was 1.3 nM; at Carbonic anhydrase 1, 5.4 nM; on Carbonic anhydrase 9 it was 71 nM.
In the case of `CC(=O)Nc1ccc(S(=O)(=O)Nc2nnc(S(N)(=O)=O)s2)cc1F`, the inhibitory constant (Ki) was found to be 4 nM on Carbonic anhydrase 4, 1.2 nM on Carbonic anhydrase 2, 5.7 nM on Carbonic anhydrase 1 and 79 nM on Carbonic anhydrase 9.
Regarding `CC(=O)Nc1ccc(S(=O)(=O)Nc2nnc(S(N)(=O)=O)s2)cc1`, the Ki at Carbonic anhydrase 4 worked out at 8.2 nM; on Carbonic anhydrase 2, 3.1 nM; on Carbonic anhydrase 1 it was 10.2 nM; at Carbonic anhydrase 9, 75 nM.
Take `Nc1c(Cl)cc(S(=O)(=O)Nc2nnc(S(N)(=O)=O)s2)cc1Cl`: the Ki on Carbonic anhydrase 4 is 1.9 nM; at Carbonic anhydrase 2 it was 0.5 nM; on Carbonic anhydrase 1, 1.1 nM; on Carbonic anhydrase 9, 24 nM.
Consider `Nc1c(F)cc(S(N)(=O)=O)cc1Br`, for which the Ki at Carbonic anhydrase 4 was determined as 113 nM; at Carbonic anhydrase 2, 33 nM; on Carbonic anhydrase 1, 3900 nM; on Carbonic anhydrase 9, 69 nM.
Regarding `CC(=O)Nc1ccc(S(=O)(=O)Nc2nnc(S(N)(=O)=O)s2)cc1I`, the Ki on Carbonic anhydrase 4 turned out to be 4.5 nM; on Carbonic anhydrase 2, 1.7 nM; at Carbonic anhydrase 1, 5.2 nM.
With `CC(=O)Nc1ccc(S(N)(=O)=O)cc1F`, the inhibitory constant (Ki) on Carbonic anhydrase 4 came to 105 nM; at Carbonic anhydrase 2, 29 nM; at Carbonic anhydrase 1, 4200 nM; at Carbonic anhydrase 9, 213 nM.
With `Nc1c(F)cc(S(=O)(=O)Nc2nnc(S(N)(=O)=O)s2)cc1Br`, the Ki at Carbonic anhydrase 4 was 1.9 nM; at Carbonic anhydrase 2, 0.2 nM; on Carbonic anhydrase 1, 1 nM; on Carbonic anhydrase 9, 27 nM.
In the case of `Nc1ccc(S(=O)(=O)Nc2nnc(S(N)(=O)=O)s2)cc1I`, the Ki on Carbonic anhydrase 4 was found to be 2.5 nM; at Carbonic anhydrase 2 it was 0.6 nM; at Carbonic anhydrase 1, 2.1 nM.
Take `Nc1c(Cl)cc(S(=O)(=O)Nc2nnc(S(N)(=O)=O)s2)cc1Br`: the figures for the inhibitory constant (Ki) on Carbonic anhydrase 4, on Carbonic anhydrase 2 and at Carbonic anhydrase 1 were 2 nM, 0.6 nM and 1.3 nM, respectively.
On to `Nc1c(Br)cc(S(N)(=O)=O)cc1Br`, for which the inhibition constant Ki was 175 nM on Carbonic anhydrase 4 and 68 nM at Carbonic anhydrase 9.
In the case of `Nc1c(Cl)cc(S(=O)(=O)Nc2nnc(S(N)(=O)=O)s2)cc1I`, the inhibition constant (Ki) on Carbonic anhydrase 4 was found to be 2.7 nM; at Carbonic anhydrase 2, 0.8 nM; on Carbonic anhydrase 1 it was 1.6 nM.
In the case of `Nc1ccc(S(=O)(=O)Nc2nnc(S(N)(=O)=O)s2)cc1Cl`, the Ki on Carbonic anhydrase 4 was found to be 2.4 nM; on Carbonic anhydrase 2, 0.6 nM; on Carbonic anhydrase 1 it was 2.5 nM; at Carbonic anhydrase 9, 46 nM.
Regarding `CC(=O)Nc1ccc(S(N)(=O)=O)cc1Cl`, the Ki on Carbonic anhydrase 4 was determined as 245 nM; at Carbonic anhydrase 2 it was 74 nM; on Carbonic anhydrase 1 it was 6250 nM; at Carbonic anhydrase 9, 196 nM.
With `Nc1c(F)cc(S(=O)(=O)Nc2nnc(S(N)(=O)=O)s2)cc1I`, the Ki came out at 2.1 nM on Carbonic anhydrase 4, 0.3 nM at Carbonic anhydrase 2, 1.7 nM at Carbonic anhydrase 1 and 21 nM on Carbonic anhydrase 9.
For `Nc1c(Br)cc(S(N)(=O)=O)cc1I`, the Ki came out at 250 nM at Carbonic anhydrase 4, 107 nM on Carbonic anhydrase 2 and 12500 nM at Carbonic anhydrase 1.
Consider `Nc1c(Cl)cc(S(N)(=O)=O)cc1Br`, for which the Ki at Carbonic anhydrase 4 is 210 nM; at Carbonic anhydrase 2 it was 54 nM; on Carbonic anhydrase 1, 7600 nM; on Carbonic anhydrase 9, 33 nM.
Take `CC(=O)Nc1ccc(S(N)(=O)=O)cc1I`: the Ki on Carbonic anhydrase 4 worked out at 115 nM; at Carbonic anhydrase 2, 47 nM; at Carbonic anhydrase 1, 3300 nM; on Carbonic anhydrase 9 it was 209 nM.
On to `Nc1c(I)cc(S(N)(=O)=O)cc1I`, for which the Ki at Carbonic anhydrase 4 came to 280 nM; on Carbonic anhydrase 1, 14000 nM.
As for `Nc1c(I)cc(S(=O)(=O)Nc2nnc(S(N)(=O)=O)s2)cc1I`, the Ki at Carbonic anhydrase 4 is 2.3 nM; on Carbonic anhydrase 2, 0.9 nM; at Carbonic anhydrase 9, 41 nM.
`Nc1c(Cl)cc(S(N)(=O)=O)cc1I`: the Ki at Carbonic anhydrase 4 was 200 nM; at Carbonic anhydrase 2 it was 61 nM; on Carbonic anhydrase 1, 7800 nM; on Carbonic anhydrase 9, 63 nM.
As for `Nc1ccc(S(=O)(=O)Nc2nnc(S(N)(=O)=O)s2)cc1F`, the Ki at Carbonic anhydrase 4 was determined as 2.5 nM; on Carbonic anhydrase 2, 0.8 nM; at Carbonic anhydrase 1 it was 3.1 nM; on Carbonic anhydrase 9, 46 nM.
Turning to `Nc1c(Br)cc(S(=O)(=O)Nc2nnc(S(N)(=O)=O)s2)cc1Br`, the Ki on Carbonic anhydrase 4 is 1.7 nM; at Carbonic anhydrase 2, 0.5 nM; at Carbonic anhydrase 1, 1 nM; on Carbonic anhydrase 9, 39 nM.
As to `CC(=O)Nc1ccc(S(N)(=O)=O)cc1Br`, the Ki on Carbonic anhydrase 4 was 58 nM; at Carbonic anhydrase 2, 25 nM; on Carbonic anhydrase 1, 3400 nM; on Carbonic anhydrase 9, 203 nM.
In the case of `Nc1c(F)cc(S(N)(=O)=O)cc1I`, the Ki on Carbonic anhydrase 4 was 125 nM; at Carbonic anhydrase 2, 29 nM; on Carbonic anhydrase 1, 3700 nM; at Carbonic anhydrase 9, 34 nM.
`Nc1c(Cl)cc(S(N)(=O)=O)cc1Cl`: the inhibitory constant (Ki) on Carbonic anhydrase 4 is 165 nM; at Carbonic anhydrase 2, 50 nM; at Carbonic anhydrase 1 it was 7000 nM; at Carbonic anhydrase 9 it was 27 nM.
As for `Nc1ccc(S(=O)(=O)Nc2nnc(S(N)(=O)=O)s2)cc1Br`, the Ki on Carbonic anhydrase 4 came to 2.4 nM; at Carbonic anhydrase 2 it was 0.7 nM; on Carbonic anhydrase 1 it was 1.9 nM; at Carbonic anhydrase 9 it was 47 nM.
`Nc1c(F)cc(S(N)(=O)=O)cc1Cl`: the Ki worked out at 95 nM on Carbonic anhydrase 4, 32 nM at Carbonic anhydrase 2, 3800 nM at Carbonic anhydrase 1 and 12 nM on Carbonic anhydrase 9.
On to `Nc1c(F)cc(S(=O)(=O)Nc2nnc(S(N)(=O)=O)s2)cc1Cl`, for which the inhibitory constant (Ki) was determined as 2 nM on Carbonic anhydrase 4, 1.4 nM on Carbonic anhydrase 1 and 40 nM at Carbonic anhydrase 9.
As to `Nc1c(Br)cc(S(=O)(=O)Nc2nnc(S(N)(=O)=O)s2)cc1I`, the Ki at Carbonic anhydrase 4 amounted to 2.3 nM; at Carbonic anhydrase 2, 0.6 nM; at Carbonic anhydrase 1 it was 1.9 nM.

The values are drawn from ChEMBL document CHEMBL1144995, “Carbonic anhydrase inhibitors. Inhibition of tumor-associated isozyme IX by halogenosulfanilamide and halogenophenylaminobenzolamide derivatives” (J Med Chem, 2003).
